Results published in patent publication US5665760A, “Lyophilized thioxanthenone antitumor agents” (priority 1995, dated 1997).
Counter-ions that a name gives are not always drawn.

Columns and labels:
[1] = test system: pancreatic ductal adenocarcinoma #03; experiment: antitumor activity in mice against pancreatic ductal adenocarcinoma #03 (Panc 03); type: in vivo
Procedure: (§1) Representative examples of the invention were tested for antitumor activity in mice according to the following procedure:
(§2) The animals were pooled, implanted subcutaneously with 30 to 60 mg tumor fragments by 12-gauge trocar, and again pooled before unselective distribution to the various treatment and control groups. For early-stage treatment, chemotherapy was started within 1 to 5 days after tumor implantation while the number of cells was relatively small (10^7 to 10^8 cells). For advanced-stage treatment, chemotherapy was delayed until the tumor became relatively large (200 to 300 mg in size). A 300-mg tumor contains approximately 3×10^8 total cells. […] Tumors were measured with a caliper weekly (or twice weekly for the more rapidly growing tumors). Mice were sacrificed when their tumors reached 1500 mg (i.e., before they can cause the animal discomfort). Tumor weights were estimated from two-dimensional measurements.
(§3) The treatment and control groups were measured when the control group tumors reached approximately 700 to 1200 mg in size (Median of Group). The median tumor weight of each group was determined (including zeros). […] A T/C value <10% is considered to indicate highly significant antitumor activity.
(§4) The results are shown in Table I for pancreatic ductal adenocarcinoma #03 and in Table 2 for colon adenocarcinoma #38.

colon adenocarcinoma #38 = experiment: antitumor activity in mice against colon adenocarcinoma #38; type: in vivo
Procedure: as §1, §2, §3, §4

[2] = Table 1, average body weight 25 g, total doses as in E1
[3] = Table 2, i.v., total dose mg/kg by Example: 2:600, 5:960, 6:132, 7:840, 16(a):1000, 18(e):180
[4] = Table 2, i.v., total dose mg/kg by Example: 6:82, 16(a):690, 18(e):120

Row | SMILES | T/C [1] [%] | Weight Loss [1, 2] | Drug Deaths ([1]; Table 1, total doses as in E1) | Weight Loss ([1]; mouse, in vivo) [g] | Drug Deaths (colon adenocarcinoma #38; [3]) | Drug Deaths (colon adenocarcinoma #38; [4]) | Weight Loss (colon adenocarcinoma #38; [4]) [g] | Weight Loss (colon adenocarcinoma #38; mouse, in vivo, iv) [g] | T/C (colon adenocarcinoma #38; iv) [%]
1 | CCN(CC)CCNc1ccc(CNS(=O)(=O)c2ccccc2F)c2sc3ccccc3c(=O)c12 [Example 27, N-[[1-[[2-(Diethylamino)ethyl]amino]-9-oxothioxanthen-4-yl]methyl]-2-fluorobenzenesulfonamide] | 5 | +0.8 g | 0 | – | – | – | – | – | –
2 | CCNCc1ccc(NCCN(CC)CC)c2c(=O)c3ccccc3sc12 [Example 14, 1-[[2-(Diethylamino)ethyl]amino]-4-[(ethylamino)-methyl]thioxanthen-9-one] | 0 | 1.2 g | 0 | – | – | – | – | – | –
3 | CCN(CC)CCCNc1ccc(CNC)c2sc3ccccc3c(=O)c12 [17(f), 1-[[3-(Diethylamino)propyl]amino]-4-(methylaminomethyl)thioxanthen-9-one dihydrochloride 3/2 hydrate] | 17 | – | 0 | 2.0 | – | – | – | – | –
4 | CCN(CC)CCNc1ccc(C=Nc2ccccc2)c2sc3ccccc3c(=O)c12 [Example 1, 1-[[2-(Diethylamino)ethyl]amino]-4-(N-phenylformimidoyl)thioxanthen-9-one] | 0 | 1.6 g | 0 | – | – | – | – | – | –
5 | CCN(CC)CCNc1ccc(CNC(=O)C(F)(F)F)c2sc3ccccc3c(=O)c12 [16(a), N-[[1-[[2-(Diethylamino)ethyl]amino]-9-oxothioxanthen-4-yl]methyl]-trifluoroacetamide] | 21 | +0.8 g | 0 | – | 0 | 0 | 1.5 | 1.2 | –
6 | CNCc1ccc(NCCCN(C)C)c2c(=O)c3ccccc3sc12 [19(e), 1-[[3-(Dimethylamino)propyl]amino]-4-[(methylaminomethyl]thioxanthen-9-one dihydrochloride monohydrate] | 4 | – | 0 | 3.4 | – | – | – | – | –
7 | CNCc1ccc(NCCN(C)C)c2c(=O)c3ccccc3sc12 [20(b), 1-[[2-(Dimethylamino)ethyl]amino]-4-[(methylamino)-methyl]thioxanthen-9-onedihydrochloride-5/4 hydrate] | 10 | – | 0 | 0.4 | – | – | – | – | –
8 | CN(C)CCNc1ccc(CNS(C)(=O)=O)c2sc3ccccc3c(=O)c12.CS(=O)(=O)O [18(f), N-[[1-[[2-(Dimethylamino)ethyl]amino]-9-oxothioxanthen-4-yl]methyl]methanesulfonamide methanesulfonate] | – | 5.2 g | 2/5 | – | – | – | – | – | –
9 | CCN(CC)CCNc1ccc(CNS(=O)(=O)c2ccc(OC)cc2)c2sc3ccccc3c(=O)c12.CS(=O)(=O)O [Example 23, N-[[1-[[2-(Diethylamino)ethyl]amino]-9-oxothioxanthen-4-yl]methyl](p-methoxy)benzenesulfonamide methanesulfonate] | 20 | 2.4 g | 0 | – | – | – | – | – | –
10 | CCN(CC)CCNc1ccc(C(N)=O)c2sc3ccccc3c(=O)c12 [Example 7, 1-[[2'-(Diethylamino)ethyl]amino]-9-oxothioxanthene-4-carboxamide] | – | 3.2 g | 1/5 | – | 0 | – | – | 0.6 | –
11 | CCN(CC)CCNc1ccc(CNC=O)c2sc3ccccc3c(=O)c12 [Example 2, N-[[1-[[2-(Diethylamino)ethyl]amino]-9-oxothioxanthen-4-yl]methyl]formamide] | 0 | 2.0 g | 0 | – | 0 | – | – | 2.8 | 0
12 | CCOP(=O)(NCc1ccc(NCCN(CC)CC)c2c(=O)c3ccccc3sc12)OCC [Example 12] | – | 3.2 g | 0 | – | – | – | – | – | –
13 | CCN(CC)CCNc1ccc(CNS(=O)(=O)c2ccc(Cl)c(Cl)c2)c2sc3ccccc3c(=O)c12 [Example 26, N-[[1-[[2-(Diethylamino)ethyl]amino]-9-oxothioxanthen-4-yl]methyl]-3,4-dichlorobenzenesulfonamide methanesulfonate·1/2 hydrate] | 13 | – | 0 | 2.2 | – | – | – | – | –
14 | CCN(CC)CCNc1ccc(CNS(C)(=O)=O)c2sc3ccc(O)cc3c(=O)c12 [Example 37, N-[[1-(2-Diethylamino)ethyl]amino]-7-hydroxy-9-oxothioxanthen-4-yl]methyl]methanesulfonamide·3/4 hydrate] | 7 | – | 0 | 0 | – | – | – | – | –
15 | CCN(CC)CCNc1ccc(CNS(C)(=O)=O)c2sc3ccc(Br)cc3c(=O)c12 [Example 33, N-[[1-[[2-(Diethylamino)ethyl]amino]-7-bromo-9-oxothioxanthen-4-yl]methyl]methanesulfonamide] | 28 | 2.0 g | 0 | – | – | – | – | – | –
16 | CCN(CC)CCNc1ccc(CN(C)S(=O)(=O)c2ccccc2)c2sc3ccccc3c(=O)c12.CS(=O)(=O)O [Example 29, N-[[1-[[2-(Diethylamino)ethyl]amino]-9-oxothioxanthen-4-yl]methyl]-N-methyl-benzenesulfonamide methanesulfonate] | 6 | 2.4 g | 0 | – | – | – | – | – | –
17 | CCN(CC)CCNc1ccc(CN(C)S(C)(=O)=O)c2sc3ccccc3c(=O)c12 [Example 8, N-[[1-[[2-(Diethylamino)ethyl)amino]-9-oxothioxanthen-yl]methyl]N-methylmethanesulfonamide] | 0 | – | 0 | 0.8 | – | – | – | – | –
18 | CCN(CC)CCNc1ccc(CN(C)S(=O)(=O)CC)c2sc3ccccc3c(=O)c12.CS(=O)(=O)O [Example 22, N-[[1-[[2-(Diethylamino)ethyl]amino]-9-oxothioxanthen-4-yl]methyl]-N-methyl-ethanesulfonamide methanesulfonate] | 0 | 3.2 g | 0 | – | – | – | – | – | –
19 | CCN(CC)CCNc1ccc(CN=CN(C)C)c2sc3ccccc3c(=O)c12 [Example 15, 1-[[2-(Diethylamino)]ethyl]amino]-4-(dimethylaminomethylene-aminomethyl)-thioxanthen-9-one trihydrochloride] | 0 | – | 0 | 2.0 | – | – | – | – | –
20 | CN(C)CCCNc1ccc(CNS(C)(=O)=O)c2sc3ccccc3c(=O)c12 [21(c), N-[[1-[[3-(Dimethylamino)propyl]amino]-9-oxothioxanthen-4-yl]methyl]methanesulfonamide methanesulfonate·1/2 hydrate] | 0 | – | 0 | 4.5 | – | – | – | – | –
21 | CCCN(Cc1ccc(NCCN(CC)CC)c2c(=O)c3ccccc3sc12)S(C)(=O)=O [Example 28, N-[[1-[[2-(Diethylamino)ethyl]amino]-9-oxothioxanthen-4-yl]methyl]-N-propyl-methanesulfonamide] | 0 | 2.8 g | 0 | – | – | – | – | – | –
22 | CCN(CC)CCNc1ccc(CN)c2sc3ccccc3c(=O)c12 [Example 4, 4-(Aminomethyl)-1-[[2-(diethylamino)ethyl]amino]-thioxanthen-9-one] | 0 | 0.4 g | 0 | – | – | – | – | – | –
23 | CCN(CC)CCNc1ccc(CNS(=O)(=O)c2ccccc2)c2sc3ccccc3c(=O)c12 [Example 9, N-[[1-[[2-(Diethylamino)ethyl]amino]-9-oxothioxanthen-4-yl]methyl]phenylsulfonamide] | 8 | 1.6 g | 0 | – | – | – | – | – | –
24 | CCN(CC)CCNc1ccc(CNS(=O)(=O)CC)c2sc3ccccc3c(=O)c12.CS(=O)(=O)O [Example 24, N-[[1-[[2-(Diethylamino)ethyl]amino]-9-oxothioxanthen-4-yl]methyl]ethanesulfonamide methanesulfonate] | 0 | 2.3 g | 0 | – | – | – | – | – | –
